According to patent US6809065B2, “Herbicide containing substituted pyrazole derivative as active ingredient” (SDS Biotech K.K., priority 2001, dated 2004):

Key:
[1] = tested on: Chenopodium album; experiment: Upland soil treatment (Test Example 2); format: in vivo; conditions: soil surface treatment next day after sowing, wettable powder, 1 kg active ingredient per hectare, evaluated 21st day after application
Procedure, shortened: (§1)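 Pre-emergence soil treatment: day after sowing, WP formulation diluted in water, applied uniformly to soil surface at 1 kg a.i./ha. Seeds sown ~1 cm deep in upland soil. Visual index read 21 d after application (weeds: high = effective; crop: low = safe).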

[2] = tested on: Setaria viridis; experiment: Upland soil treatment (Test Example 2); format: in vivo; conditions: soil surface treatment next day after sowing, wettable powder, 1 kg active ingredient per hectare, evaluated 21st day after application
Procedure, shortened: as §1

[3] = tested on: Digitaria adscendens; experiment: Upland soil treatment (Test Example 2); format: in vivo; conditions: soil surface treatment next day after sowing, wettable powder, 1 kg active ingredient per hectare, evaluated 21st day after application
Procedure, shortened: as §1

[4] = tested on: Stellaria media; experiment: Upland soil treatment (Test Example 2); format: in vivo; conditions: soil surface treatment next day after sowing, wettable powder, 1 kg active ingredient per hectare, evaluated 21st day after application
Procedure, shortened: as §1

[5] = tested on: rice (Oryza sative, variety: Koshihikari); experiment: Paddy field treatment (Test Example 3), crop; format: in vivo, Oryza sativa; conditions: transplanted rice two-leaf period, water surface treatment 10th day after transplantation, 1 kg active ingredient per hectare, evaluated 21st day, lower index = higher safety
Procedure, shortened: (§2)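 Index scoring of herbicidal effect and rice safety 21 days after treatment. The wettable powder, dosed at 1 kg a.i./ha, was dripped onto flooded pots (4 cm water) 10 days after transplanting two-leaf Koshihikari rice. Weed seeds had been sown into the puddled soil.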

[6] = tested on: wheat (Triticum aestivum); experiment: Upland field foliage treatment (Test Example 1), crop; format: in vivo; conditions: foliage treatment 14th day after sowing, 1 kg active ingredient per hectare, evaluated 21st day, lower index = higher safety
Procedure, shortened: (§3)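 Scored on an index 21 days after treatment: a high value on weeds means more herbicidal effect, and a low value on crops means more crop safety. Treatment was a foliar spray of water-diluted wettable powder at 1 kg a.i./ha, applied to plants 14 days after sowing in upland soil.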

[7] = tested on: soybean (Glycine max); experiment: as above; format: in vivo; conditions: foliage treatment 14th day after sowing, 1 kg active ingredient per hectare, evaluated 21st day, lower index = higher safety
Procedure, shortened: as §3

[8] = tested on: Chenopodium album; experiment: Upland field foliage treatment (Test Example 1); format: in vivo; conditions: foliage treatment 14th day after sowing, wettable powder, 1 kg active ingredient per hectare, evaluated 21st day after application
Procedure, shortened: as §3

[9] = tested on: Setaria viridis; experiment: Upland field foliage treatment (Test Example 1); format: in vivo; conditions: foliage treatment 14th day after sowing, wettable powder, 1 kg active ingredient per hectare, evaluated 21st day after application
Procedure, shortened: as §3

[10] = tested on: Digitaria adscendens; experiment: Upland field foliage treatment (Test Example 1); format: in vivo; conditions: foliage treatment 14th day after sowing, wettable powder, 1 kg active ingredient per hectare, evaluated 21st day after application
Procedure, shortened: as §3

[11] = tested on: Stellaria media; experiment: Upland field foliage treatment (Test Example 1); format: in vivo; conditions: foliage treatment 14th day after sowing, wettable powder, 1 kg active ingredient per hectare, evaluated 21st day after application
Procedure, shortened: as §3

[12] = tested on: wheat (Triticum aestivum); experiment: Upland soil treatment (Test Example 2), crop; format: in vivo; conditions: soil surface treatment next day after sowing, 1 kg active ingredient per hectare, evaluated 21st day, lower index = higher safety
Procedure, shortened: as §1

[13] = tested on: soybean (Glycine max); experiment: Upland soil treatment (Test Example 2), crop; format: in vivo; conditions: soil surface treatment next day after sowing, 1 kg active ingredient per hectare, evaluated 21st day, lower index = higher safety
Procedure, shortened: as §1

[14] = tested on: Ammannia multiflora; experiment: Paddy field treatment (Test Example 3); format: in vivo; conditions: paddy pot, submerged 4 cm, dropped on water surface 10th day after transplantation, 1 kg active ingredient per hectare, evaluated 21st day
Procedure, shortened: as §2

[15] = tested on: Scirpus juncoides; experiment: Paddy field treatment (Test Example 3); format: in vivo; conditions: paddy pot, submerged 4 cm, dropped on water surface 10th day after transplantation, 1 kg active ingredient per hectare, evaluated 21st day
Procedure, shortened: as §2

[16] = tested on: Monochoria vaginalis; experiment: Paddy field treatment (Test Example 3); format: in vivo; conditions: paddy pot, submerged 4 cm, dropped on water surface 10th day after transplantation, 1 kg active ingredient per hectare, evaluated 21st day
Procedure, shortened: as §2

[17] = tested on: Echinochloa spp.; experiment: Paddy field treatment (Test Example 3); format: in vivo, Echinochloa crusgalli; conditions: paddy pot, submerged 4 cm, dropped on water surface 10th day after transplantation, 1 kg active ingredient per hectare, evaluated 21st day
Procedure, shortened: as §2

CO/C=C(/C(=O)OC)n1nc(-c2cccc(Cl)c2)c(Cl)c1C [Control, reference compound]
Herbicidal activity Chenopodium album [1]: 0 (herbicidal effect of not less than 0% by weight and less than 10% by weight)
Herbicidal activity Setaria viridis [2]: 0 (herbicidal effect of not less than 0% by weight and less than 10% by weight)
Herbicidal activity Digitaria adscendens [3]: 0 (herbicidal effect of not less than 0% by weight and less than 10% by weight)
Herbicidal activity Stellaria media [4]: 0 (herbicidal effect of not less than 0% by weight and less than 10% by weight)
Herbicidal activity Oryza sativa [5]: 0 (herbicidal effect of not less than 0% by weight and less than 10% by weight)
Herbicidal activity Triticum aestivum [6]: 0 (herbicidal effect of not less than 0% by weight and less than 10% by weight)
Herbicidal activity Glycine max [7]: 0 (herbicidal effect of not less than 0% by weight and less than 10% by weight)
Herbicidal activity Chenopodium album [8]: 0 (herbicidal effect of not less than 0% by weight and less than 10% by weight)
Herbicidal activity Setaria viridis [9]: 0 (herbicidal effect of not less than 0% by weight and less than 10% by weight)
Herbicidal activity Digitaria adscendens [10]: 0 (herbicidal effect of not less than 0% by weight and less than 10% by weight)
Herbicidal activity Stellaria media [11]: 0 (herbicidal effect of not less than 0% by weight and less than 10% by weight)
Herbicidal activity Triticum aestivum [12]: 0 (herbicidal effect of not less than 0% by weight and less than 10% by weight)
Herbicidal activity Glycine max [13]: 0 (herbicidal effect of not less than 0% by weight and less than 10% by weight)
Herbicidal activity Ammannia multiflora [14]: 0 (herbicidal effect of not less than 0% by weight and less than 10% by weight)
Herbicidal activity Scirpus juncoides [15]: 0 (herbicidal effect of not less than 0% by weight and less than 10% by weight)
Herbicidal activity Monochoria vaginalis [16]: 0 (herbicidal effect of not less than 0% by weight and less than 10% by weight)
Herbicidal activity Echinochloa spp. [17]: 0 (herbicidal effect of not less than 0% by weight and less than 10% by weight)
